In patent US20060008849A1, “Methods for measuring chloride channel conductivity” (priority 2004, published 2006):

Key:
human GABAA channel = target: T1, human GABAA channel (UniProt P18508+P28472+P62813); test: Sandell-Kolthoff (SK) assay on the outwardly rectifying GABAA receptor (iodide efflux); format: cell-based; details: IC50, decrease of GABAA channel conductivity
T1 construct: host or cells: ATCC CRL-2029 (WSS-1, HEK293-derived, by own knowledge)
Protocol: In addition, the iodine loading buffer consisting of 150 mM NaI, 2 mM CaCl2, 0.8 mM NaH2PO4, 1 mM of MgCl2, and 5 mM of IK, 2% FBS (# 35-010-AV, CELLGRO, VA) pH7.4, was prepared by mixing and dissolving each described component into purified water, and adjusting the pH accordingly.
Cell line expressing human GABAA (Adenovirus type) was obtained from the American Type Culture Collection (ATCC, Cat No. CRL-2029). Cells were grown in supplemented DMEM medium consisting of DMEM medium (#10-017-CV, CELLGRO, VA), 4 mM L-glutamine, 1.5 g/L sodium bicarbonate, 4.5 g/L glucose, 1.0 mM sodium pyruvate, and 10% fetal bovine serum (# 35-010-AV, CELLGRO, VA)
Cells in supplemented DMEM medium (200 μl, approx. 250,000 cells/ml) were added to each well of a D-lysine coated 96-well plate (Corning, Cat No. 3667), and were incubated overnight in a tissue culture incubator at 37° C. under 90% air/10% CO2. Then, the supplemented DMEM medium was removed with a multichannel pipettor, and 200 μl iodine-loading buffer was added to each well with Rapid Plate™ (Zymark, MA). Cells were incubated for 2-4 hours at 37° C. under 90% air/10% CO2, and were subsequently washed with phosphate buffer saline (DPBS, Invitrogen, CA), or culture medium. […] The amount of I^− in the lysed cells was measured by the SK assay procedure described in Example 1.
IC50s were calculated with IDBS XL-fit model 205 (IDBS, UK).

human CFTR channel = test: Sandell-Kolthoff (SK) assay on the outwardly rectifying CFTR channel, HTB-79 cells; format: cell-based
Protocol: HTB-79 cell line intrinsically expressing the human CFTR channel was obtained from ATCC. The CRL-1918 cell line, having a defective CFTR channel, was also obtained from ATCC. Cells were grown in Iscove's modified Dulbecco's medium consisting of Iscove's modified medium (CELLGRO, VA) and 4 mM L-glutamine, 1.5 g/L sodium bicarbonate, and 20% FBS (CELLGRO, VA). HTB-79 cells in Iscove's modified Dulbecco's medium (200 μl, approx. 500,000 cells/ml) were added to each well of a costar 96-well plate (Corning Costar, NY), and were incubated overnight in a tissue culture incubator at 37° C. under 90% air/5% CO2. Then, the Iscove's modified Dulbecco's medium was removed and 200 μl of iodine-loading buffer was added to each well of the plate. Cells were incubated for 2-4 hours at 37° C. under 90% air/5% CO2 and washed with DPBS (Invitrogen, CA) or culture medium. DPBS (100-200 μl) was added to each well. […] After the cells were incubated at room temperature for an additional 5 minutes, they were separated from the suspending buffer, and were lysed with 100 μl of cell lysis buffer (1% Triton X-100). The amount of I^− in the lysed cells was measured by the SK assay procedure described in Example 1. […] Forskolin stimulated adenylate cyclase activity resulting in increased level of cAMP, which in turn activated CFTR channel.

T1 sequence (P62813 28-455): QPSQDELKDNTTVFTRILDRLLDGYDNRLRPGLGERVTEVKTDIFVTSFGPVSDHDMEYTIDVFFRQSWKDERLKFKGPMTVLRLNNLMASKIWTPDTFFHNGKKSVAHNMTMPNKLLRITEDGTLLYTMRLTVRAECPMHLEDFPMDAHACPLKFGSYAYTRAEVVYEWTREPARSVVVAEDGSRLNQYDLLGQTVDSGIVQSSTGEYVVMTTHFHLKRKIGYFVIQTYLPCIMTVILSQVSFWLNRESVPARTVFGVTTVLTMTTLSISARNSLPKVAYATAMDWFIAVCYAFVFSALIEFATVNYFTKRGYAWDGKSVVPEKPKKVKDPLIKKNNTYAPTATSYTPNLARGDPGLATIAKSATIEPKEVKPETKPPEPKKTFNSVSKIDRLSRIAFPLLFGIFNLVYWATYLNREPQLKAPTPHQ
T1 sequence (P28472 26-473): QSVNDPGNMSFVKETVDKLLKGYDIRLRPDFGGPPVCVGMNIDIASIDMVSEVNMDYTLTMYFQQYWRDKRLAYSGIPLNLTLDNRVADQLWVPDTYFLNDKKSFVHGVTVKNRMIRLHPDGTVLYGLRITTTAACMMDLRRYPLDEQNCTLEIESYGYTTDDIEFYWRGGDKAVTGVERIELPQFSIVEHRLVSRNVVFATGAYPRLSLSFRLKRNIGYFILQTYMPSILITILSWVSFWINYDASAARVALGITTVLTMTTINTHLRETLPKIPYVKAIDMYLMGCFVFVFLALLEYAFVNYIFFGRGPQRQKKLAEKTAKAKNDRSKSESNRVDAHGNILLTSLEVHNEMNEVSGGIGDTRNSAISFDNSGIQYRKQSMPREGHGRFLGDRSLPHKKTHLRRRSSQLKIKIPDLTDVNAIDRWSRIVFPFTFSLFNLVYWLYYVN
T1 sequence (P18508 39-466): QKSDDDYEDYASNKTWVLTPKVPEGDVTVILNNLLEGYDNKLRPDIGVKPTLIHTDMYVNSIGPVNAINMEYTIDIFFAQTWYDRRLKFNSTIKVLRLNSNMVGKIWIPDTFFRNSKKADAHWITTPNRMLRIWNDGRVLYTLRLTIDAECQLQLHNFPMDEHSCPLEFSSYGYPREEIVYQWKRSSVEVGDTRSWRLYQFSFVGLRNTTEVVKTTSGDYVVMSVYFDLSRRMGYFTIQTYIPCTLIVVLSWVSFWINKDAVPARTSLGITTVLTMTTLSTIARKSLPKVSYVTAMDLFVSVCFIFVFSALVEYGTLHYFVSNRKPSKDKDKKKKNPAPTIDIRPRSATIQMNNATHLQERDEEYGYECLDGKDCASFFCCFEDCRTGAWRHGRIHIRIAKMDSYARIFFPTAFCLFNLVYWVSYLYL

EC50 (human CFTR channel; one-half of activity with 100 μM Forskolin, read-out: EC50 for Forskolin, activation of CFTR channel) | SMILES | IC50 (human GABAA channel; in the presence of 30 μM GABA) | IC50 (human GABAA channel; in the presence of 300 μM GABA) | lowest concentration at which activation of CFTR was detected (human CFTR channel)
– | CN1CCc2cc3c(cc2[C@H]1[C@@H]1OC(=O)c2c1ccc1c2OCO1)OCO3 [Bicuculline] | ~1 µM | ~50 µM | –
1000 nM | C=C[C@@]1(C)CC(=O)[C@]2(O)[C@@]3(C)[C@@H](O)CCC(C)(C)[C@@H]3[C@H](O)[C@H](OC(C)=O)[C@@]2(C)O1 [Forskolin] | – | – | 300 nM
